Reference: patent US20130143929A1, “FUNGICIDAL IMIDAZOLES” (EI DU PONT DE NEMOURS AND COMPANY, priority 2010, published 2013)
Marks after values point to notes of the source that are not given here.

Columns and labels:
Type in all cases: in vivo
[1] = tested on: Septoria tritici (the causal agent of wheat leaf blotch); experiment: Test B: wheat leaf blotch, preventive spray on wheat seedlings, visual disease rating; settings: wheat leaf blotch, preventive spray on wheat seedlings
From the text: (§1) General protocol for preparing test suspensions for Tests A-D: the test compounds were first dissolved in acetone in an amount equal to 3% of the final volume and then suspended at the desired concentration (in ppm) in acetone and purified water (50/50 mix by volume) containing 250 ppm of the surfactant Trem® 014 (polyhydric alcohol esters). The resulting test suspensions were then used in Tests A-D. Spraying a 200 ppm test suspension to the point of run-off on the test plants was the equivalent of a rate of 800 g/ha.
(§2) The test suspension was sprayed to the point of run-off on wheat seedlings. The following day the seedlings were inoculated with a spore suspension of Septoria tritici (the causal agent of wheat leaf blotch) and incubated in a saturated atmosphere at 24° C. for 48 h, and then moved to a growth chamber at 20° C. for 19 days, after which time visual disease ratings were made.
(§3) Results for Tests A-E are given in Table A. In the Table, a rating of 100 indicates 100% disease control and a rating of 0 indicates no disease control (relative to the controls). A dash (—) indicates no test results. An asterisk “*” next to the rating value indicates a 40 ppm test suspension was used.

[2] = tested on: Puccinia recondite f. sp. tritici (the causal agent of wheat leaf rust); experiment: Test A: wheat leaf rust, preventive spray on wheat seedlings, visual disease rating; settings: wheat leaf rust, preventive spray on wheat seedlings
From the text: as §1
as §2, with “Puccinia recondite f. sp.” for “Septoria”, “rust)” for “blotch)”, “20°” for “24°”, “24” for “48”, “7” for “19”
as §3

[3] = tested on: Botrytis cinerea (the causal agent of tomato Botrytis); experiment: Test C: tomato Botrytis, preventive spray on tomato seedlings, visual disease rating; settings: tomato Botrytis, preventive spray on tomato seedlings
From the text: as §1
as §2, with “tomato” for “wheat”, “Botrytis cinerea” for “Septoria tritici”, “tomato Botrytis)” for “wheat leaf blotch)”, “20°” for “24°”, “24°” for “20°”, “3” for “19”
as §3

[4] = tested on: Blumeria graminis f. sp. tritici (also known as Erysiphe graminis f. sp. tritici, the causal agent of wheat powdery mildew); experiment: Test D: wheat powdery mildew, preventive spray on wheat seedlings, visual disease rating; settings: wheat powdery mildew, preventive spray on wheat seedlings
From the text: as §1
The test suspension was sprayed to the point of run-off on wheat seedlings. The following day the seedlings were inoculated with a spore dust of Blumeria graminis f. sp. tritici, (also known as Erysiphe graminis f. sp. tritici, the causal agent of wheat powdery mildew) and incubated in a growth chamber at 20° C. for 8 days, after which time visual disease ratings were made.
as §3

[5] = asterisk: 40 ppm test suspension
[6] = no asterisk (standard test suspension concentration, not 40 ppm)

SMILES | Test B rating (100 = 100% disease control, 0 = no disease control relative to the controls) [1, 5] | Test A rating (100 = 100% disease control, 0 = no disease control relative to the controls) [2, 5] | Test C rating (100 = 100% disease control, 0 = no disease control relative to the controls) [3, 5] | Test D rating (100 = 100% disease control, 0 = no disease control relative to the controls) [4, 5] | Test B rating (100 = 100% disease control, 0 = no disease control relative to the controls) [1, 6] [%] | Test A rating (100 = 100% disease control, 0 = no disease control relative to the controls) [2, 6] [%] | Test C rating (100 = 100% disease control, 0 = no disease control relative to the controls) [3, 6] [%] | Test D rating (100 = 100% disease control, 0 = no disease control relative to the controls) [4, 6] [%]
Cc1nc(Cl)n(-c2c(F)cccc2F)c1C(O)c1c(F)cccc1F (racemic) [compound 24] | 100* % | 100* % | 100* % | 91* % | – | – | – | –
Cc1nc(Cl)n(-c2c(F)cccc2F)c1C(O)c1c(F)ccc(Br)c1F (racemic) [compound 25] | 100* % | 99* % | 87* % | 0* % | – | – | – | –
Cc1nc(Cl)n(-c2c(F)cccc2F)c1C(O)c1ccc(F)cc1F (racemic) [compound 26] | 100* % | 100* % | 100* % | 99* % | – | – | – | –
Cc1nc(Cl)n(-c2ccc(F)cc2Cl)c1C(O)c1c(F)cc(F)cc1F (racemic) [compound 30] | – | – | – | – | 100 | 100 | 100 | 100
Cc1ncn(-c2ccc(F)cc2Cl)c1C(O)c1ccc(Cl)cc1Cl (racemic) [compound 33] | – | – | – | 0* % | 100 | 100 | 100 | –
Cc1nc(Cl)n(-c2ccc(F)cc2F)c1C(O)c1ccc(F)cc1Cl (racemic) [compound 35] | – | – | – | – | 100 | 100 | 100 | 68
Cc1nc(Cl)n(-c2ccc(Cl)cc2Cl)c1C(O)c1c(F)cc(Cl)cc1F (racemic) [compound 36] | – | – | – | – | 100 | 99 | 98 | 0
Cc1nc(Cl)n(-c2ccc(Cl)cc2Cl)c1C(O)c1c(F)ccc(Br)c1Cl (racemic) [compound 37] | – | – | – | – | 100 | 98 | 91 | 21
Cc1nc(Cl)n(-c2ccc(F)cc2F)c1C(O)c1c(F)ccc(I)c1F (racemic) [compound 38] | – | – | – | – | 95 | 99 | 7 | 0
OC(c1ccc(Cl)cc1)c1c(Cl)nc(Cl)n1-c1c(F)cc(F)cc1Cl (racemic) [compound 39] | – | – | – | – | 100 | 100 | 99 | 99
OC(c1ccc(F)cc1F)c1c(Cl)nc(Cl)n1-c1c(F)cc(F)cc1Cl (racemic) [compound 40] | – | – | – | – | 100 | 100 | 100 | 100
OC(c1ccc(F)cc1Cl)c1c(Cl)nc(Cl)n1-c1c(F)cccc1Cl (racemic) [compound 41] | – | – | – | – | 100 | 100 | 100 | 100
OC(c1ccc(F)cc1Cl)c1c(Br)ncn1-c1ccc(F)cc1Cl (racemic) [compound 215] | 85* % | 92* % | 55* % | 0* % | – | – | – | –
COc1ccc(-n2c(C)nc(Br)c2C(O)c2ccc(F)cc2Cl)c(OC)c1 (racemic) [compound 217] | 0* % | 0* % | 42* % | 0* % | – | – | – | –
OC(c1ccc(F)cc1Cl)c1c(Br)nc(Cl)n1-c1ccc(F)cc1Cl (racemic) [compound 218] | 100* % | 100* % | 100* % | 89* % | – | – | – | –
COc1ccc(C(O)c2c(C)nc(Cl)n2-c2ccc(Cl)cc2Cl)c(Cl)c1 (racemic) [compound 219] | 100* % | 99* % | 98* % | 21* % | – | – | – | –
COc1ccc(C(O)c2c(C)nc(Cl)n2-c2c(F)cccc2F)c(C)c1 (racemic) [compound 220] | 100* % | 100* % | 100* % | 97* % | – | – | – | –
COc1ccc(C(O)c2c(C)nc(Cl)n2-c2c(F)cccc2F)c(Cl)c1 (racemic) [compound 221] | 100* % | 100* % | 99* % | 97* % | – | – | – | –
COc1ccc(C(O)c2c(Br)ncn2-c2c(F)cccc2Cl)c(C)c1 (racemic) [compound 222] | 57* % | 91* % | 30* % | 0* % | – | – | – | –
COc1ccc(C(O)c2c(Br)nc(C)n2-c2c(F)cccc2Cl)c(C)c1 (racemic) [compound 224] | 100* % | 100* % | 100* % | 100* % | – | – | – | –
Cc1cccc(C)c1-n1c(C)nc(Br)c1C(O)c1ccc(F)cc1Cl (racemic) [compound 225] | – | – | – | – | 83 | 89 | 37 | 0
Cc1cccc(C)c1-n1c(C)nc(Cl)c1C(O)c1ccc(F)cc1Cl (racemic) [compound 226] | – | – | – | – | 98 | 94 | 6 | 0
